Source: US9062051B2, “Compounds and pharmaceutical compositions thereof for the treatment of proliferative disorders” (GALAPAGOS NV, priority 2014, dated 2015)

How the values were obtained:
[1] = Pharmacokinetics in rats (exposure, AUC); type: in vivo, male Sprague Dawley rats; conditions: po; for AUC: male, Sprague Dawley, rat, plasma
Protocol: This study is performed with 6 naïve male Sprague Dawley rats (180-200 g, 6-8 weeks old). Rats are obtained from Janvier, Le Genest St Isle, France.
A controlled environment is maintained in the room with optimal conditions of approximately 15 air changes per hour, a temperature of 22±2 C, a relative humidity of 30-70% and a 12 hour light/dark cycle
Pelleted diet for rodents (UAR A04C-10) is used and is provided ad libitum. Before p.o. dosing, the animals are deprived of food for at least 12 hours before compound administration and 4 hours after administration. All animals had free access to tap water.
Two days before the dosing day, the implantation of a catheter in the jugular vein is done under gaseous anaesthesia with isoflurane.
Rats are dosed intravenously with test compound via a bolus in the tail vein with a dose level of 1 mg/kg. […]
The i.v. bolus and the oral administration are given a dose volume of 5 mL/kg.
From all animals approximately 200 μL blood samples are collected via the catheter and placed into tubes containing Li-heparin as anticoagulant. Blood samples are collected at the various time points (i.v.: 0.05, 0.25, 0.5, 1, 3, 5, 8 and 24 hours after dosing; p.o.: 0.25, 0.5, 1, 3, 5, 8 and 24 hours after dosing).
Blood is kept on ice. Within 1 hour after sampling, blood is centrifuged at 5,000 rpm for 10 min at 4° C. Immediately after centrifugation, the resulting plasma samples are collected into polypropylene tubes and are kept frozen at −20° C. pending bioanalysis.
Plasma samples are assayed by LC-MS/MS. Plasma proteins are precipitated with an excess of methanol containing the internal standard and the corresponding supernatant is injected on a C18 column. Analytes are eluted out the HPLC system by increasing the percentage of the organic mobile phase. An API4000 mass spectrometer (AB Sciex™) is used for the detection and quantification.
Pharmacokinetic parameters are calculated by non-compartmental analysis using WinNonlin® software (Pharsight, version 5.2).

[2] = target: T1, Recombinant EphB2 (Homo sapiens, UniProt P29323); assay: EphB2 assay (33P incorporation into poly GT, filter plate); type: biochemical; conditions: read-out: EphB2 potency IC50
T1 construct: purchased Carna 08-129
T1 sequence (P29323 19-986 isoform P29323-2 limits assumed): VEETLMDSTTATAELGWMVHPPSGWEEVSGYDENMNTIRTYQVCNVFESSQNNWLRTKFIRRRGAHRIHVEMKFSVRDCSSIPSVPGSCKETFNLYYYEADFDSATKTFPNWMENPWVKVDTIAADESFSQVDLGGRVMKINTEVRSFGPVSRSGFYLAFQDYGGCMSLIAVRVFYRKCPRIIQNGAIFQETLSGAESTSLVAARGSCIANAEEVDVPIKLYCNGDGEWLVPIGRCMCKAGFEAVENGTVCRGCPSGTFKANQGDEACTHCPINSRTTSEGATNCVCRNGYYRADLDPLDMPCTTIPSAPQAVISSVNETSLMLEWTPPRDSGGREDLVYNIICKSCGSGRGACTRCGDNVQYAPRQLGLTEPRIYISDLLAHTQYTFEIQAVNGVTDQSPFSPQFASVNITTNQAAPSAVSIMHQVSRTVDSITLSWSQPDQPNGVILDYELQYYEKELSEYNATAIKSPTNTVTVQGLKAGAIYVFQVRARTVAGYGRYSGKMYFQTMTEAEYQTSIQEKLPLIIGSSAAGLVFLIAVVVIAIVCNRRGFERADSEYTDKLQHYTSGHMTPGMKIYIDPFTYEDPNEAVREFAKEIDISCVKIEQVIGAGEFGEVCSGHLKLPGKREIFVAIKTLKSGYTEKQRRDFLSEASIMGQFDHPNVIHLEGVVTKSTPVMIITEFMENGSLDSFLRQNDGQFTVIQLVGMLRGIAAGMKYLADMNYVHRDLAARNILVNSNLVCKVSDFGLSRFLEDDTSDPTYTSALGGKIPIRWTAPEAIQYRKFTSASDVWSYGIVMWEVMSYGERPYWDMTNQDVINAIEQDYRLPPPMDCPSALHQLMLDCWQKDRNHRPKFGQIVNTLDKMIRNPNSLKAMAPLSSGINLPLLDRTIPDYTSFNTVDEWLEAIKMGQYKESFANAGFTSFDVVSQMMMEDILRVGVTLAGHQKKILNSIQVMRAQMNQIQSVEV
Protocol: The principle of the assay consists of the measurement of incorporated ^33P into the substrate poly GT when phosphorylated by the enzyme EphB2 using [^33P]-γ-ATP and ATP. Unincorporated ^33P is removed by loading the samples on a filter plate (using a harvester, Perkin Elmer) and 6 subsequent washing steps. ^33P incorporated in polyGT is measured on a Topcount after addition of microscint to the filter plates (Perkin Elmer).
Recombinant EphB2 (Carna Cat#08-129, 0.6 ng per well) was incubated with 0.05 mg/mL Poly(Glu,Tyr)sodium salt (4:1), MW 20 000-50 000 (Sigma catalog number P0275) in kinase reaction buffer (10 mM MOPS pH 7.2, 5 mM DTT, 0.01% Triton-X100, 5 mM MnCl2, 0.5 mM Na3VO4, 5 mM beta-glycerolphosphate), 0.5 μM non-radioactive ATP, 0.25 μCi/25 μl ^33P-gamma-ATP (Perkin Elmer, catalog number NEG602K) final concentrations with or without 5 μL containing test compound or vehicle (DMSO, 1% final concentration), in a total volume of 25 μL, in a polypropylene 96-well plate (Greiner, V-bottom). After 45 min at 30° C., reactions were stopped by adding of 25 μL/well of 150 mM phosphoric acid. The experiment was then conducted as described for EphA7. The ability of a test compound to inhibit the kinase activity was determined using counts per minutes (cpm) measured by the Topcount as:
Cpm (cpd): cpm determined for sample with test compound present
Cpm (control): cpm determined for sample with positive control inhibitor (10 μM staurosporine)
Cpm (vehicle): cpm determined in the presence of vehicle (1% DMSO)
Dose dilution series were prepared for the compounds enabling the testing of dose-response effects in the EphB2 assay and the calculation of the IC50 for each compound. Each compound was routinely tested at concentration of 20 μM followed by a 1/5 serial dilution, 10 points in a final concentration of 1% DMSO. When potency of compound series increased, more dilutions may be prepared and/or the top concentration may be lowered (e.g. 5 μM, 1 μM).

Structure (SMILES) | AUC ([1]; 5 mg/kg) [ng·h/mL] | IC50 [2] [nM] | other results
Cc1ccc(NC(=O)c2cccc(C(F)(F)F)c2)cc1-c1ccc2c(C(O)CN3CCOCC3)n[nH]c2n1 (stereo not shown) [Compound 2, N-{3-[3-(1-Hydroxy-2-morpholin-4-yl-ethyl)-1H-pyrazolo[3,4-b]pyridin-6-yl]-4-methyl-phenyl}-3-trifluoromethyl-benzamide] | 852 | 25 to 50 | Exposure AUC ([1]; 5 mg/kg): 659 ng·h/mL
Cc1cccc(C(=O)Nc2ccc(C)c(-c3ccc4c(C(O)CN5CCOCC5)n[nH]c4n3)c2)c1 (stereo not shown) [Compound 3, N-{3-[3-(1-Hydroxy-2-morpholin-4-yl-ethyl)-1H-pyrazolo[3,4-b]pyridin-6-yl]-4-methyl-phenyl}-3-methyl-benzamide] | 214 | 50 to 100 | Exposure AUC ([1]; 5 mg/kg): 159 ng·h/mL
COc1cc(OC)cc(C(=O)Nc2ccc(C)c(-c3ccc4c(C(O)CN5CCOCC5)n[nH]c4n3)c2)c1 (stereo not shown) [Compound 4, N-{3-[3-(1-Hydroxy-2-morpholin-4-yl-ethyl)-1H-pyrazolo[3,4-b]pyridin-6-yl]-4-methyl-phenyl}-3,5-dimethoxy-benzamide] | – | 50 to 100 | AUC ([1]; 5 mg/kg, formulated in methylcellulose 5% in water): 407 ng·h/mL
Cc1ccc(C(=O)Nc2cccc(C(F)(F)F)c2)cc1-c1ccc2c(C(O)CN3CCOCC3)n[nH]c2n1 (stereo not shown) [Compound 5, 3-[3-(1-Hydroxy-2-morpholin-4-yl-ethyl)-1H-pyrazolo[3,4-b]pyridin-6-yl]-4-methyl-N-(3-trifluoromethyl-phenyl)-benzamide] | – | > 100 | –
Cc1ccc(NC(=O)c2cccc(N(C)C)c2)cc1-c1ccc2c(C(O)CN3CCOCC3)n[nH]c2n1 (stereo not shown) [Compound 6, 3-Dimethylamino-N-{3-[3-(1-hydroxy-2-morpholin-4-yl-ethyl)-1H-pyrazolo[3,4-b]pyridin-6-yl]-4-methyl-phenyl}-benzamide] | 1790 | 25 to 50 | –
COc1cc(OC)cc(C(=O)Nc2ccc(C)c(-c3ccc4c(C(C)O)n[nH]c4n3)c2)c1 (stereo not shown) [Compound 9, N-{3-[3-(1-Hydroxy-ethyl)-1H-pyrazolo[3,4-b]pyridin-6-yl]-4-methyl-phenyl}-3,5-dimethoxy-benzamide] | 3260 | 25 to 50 | –
COc1cc(OC)cc(C(=O)Nc2ccc(C)c(-c3ccc4c(C)n[nH]c4n3)c2)c1 [Compound 11, 3,5-Dimethoxy-N-[4-methyl-3-(3-methyl-1H-pyrazolo[3,4-b]pyridin-6-yl)-phenyl]-benzamide] | – | 0.01 to 25 | –
CCc1n[nH]c2nc(-c3cc(NC(=O)c4cc(OC)cc(OC)c4)cnc3C)ccc12 [Compound 13, N-[5-(3-Ethyl-1H-pyrazolo[3,4-b]pyridin-6-yl)-6-methyl-pyridin-3-yl]-3,5-dimethoxy-benzamide] | 1420 | 50 to 100 | –
Cc1cc(C)cc(C(=O)Nc2ccc(C)c(-c3ccc4c(CO)n[nH]c4n3)c2)c1 [Compound 16, N-[3-(3-Hydroxymethyl-1H-pyrazolo[3,4-b]pyridin-6-yl)-4-methyl-phenyl]-3,5-dimethyl-benzamide] | – | 0.01 to 25 | –
COc1cc(OC)cc(C(=O)Nc2cnc(C)c(-c3ccc4c(C)n[nH]c4n3)c2)c1 [Compound 17, 3,5-Dimethoxy-N-[6-methyl-5-(3-methyl-1H-pyrazolo[3,4-b]pyridin-6-yl)-pyridin-3-yl]-benzamide] | 1230 | 25 to 50 | –
CCc1n[nH]c2nc(-c3cc(NC(=O)c4cc(C)cc(OCCN5CCOCC5)c4)ccc3C)ccc12 [Compound 20, N-[3-(3-Ethyl-1H-pyrazolo[3,4-b]pyridin-6-yl)-4-methyl-phenyl]-3-methyl-5-(2-morpholin-4-yl-ethoxy)-benzamide] | – | 0.01 to 25 | –
CCc1n[nH]c2nc(-c3cc(NC(=O)c4cc(C)cc(OCCOC)c4)ccc3C)ccc12 [Compound 21, N-[3-(3-Ethyl-1H-pyrazolo[3,4-b]pyridin-6-yl)-4-methyl-phenyl]-3-(2-methoxy-ethoxy)-5-methyl-benzamide] | – | 0.01 to 25 | –
COc1cc(OC)cc(C(=O)Nc2ccc(C)c(-c3ccc4c(C5(O)CC5)n[nH]c4n3)c2)c1 [Compound 29, N-{3-[3-(1-Hydroxy-cyclopropyl)-1H-pyrazolo[3,4-b]pyridin-6-yl]-4-methyl-phenyl}-3,5-dimethoxy-benzamide] | 5840 | 0.01 to 25 | –
Cc1ccc(NC(=O)c2cccc(C(F)(F)F)c2)cc1-c1ccc2c(C(C)O)n[nH]c2n1 (stereo not shown) [Compound 35, N-{3-[3-(1-Hydroxy-ethyl)-1H-pyrazolo[3,4-b]pyridin-6-yl]-4-methyl-phenyl}-3-trifluoromethyl-benzamide] | 3570 | 50 to 100 | –
CCc1n[nH]c2nc(-c3cc(NC(=O)c4cc(OC)cc(C(F)(F)F)c4)cnc3C)ccc12 [Compound 49, N-[5-(3-Ethyl-1H-pyrazolo[3,4-b]pyridin-6-yl)-6-methyl-pyridin-3-yl]-3-methoxy-5-trifluoromethyl-benzamide] | – | > 100 | –
CCc1n[nH]c2nc(-c3cc(NC(=O)c4cc(C)cc(C)c4)cnc3C)ccc12 [Compound 50, N-[5-(3-Ethyl-1H-pyrazolo[3,4-b]pyridin-6-yl)-6-methyl-pyridin-3-yl]-3,5-dimethyl-benzamide] | 1270 | > 100 | –
Cc1ccc(NC(=O)c2cccc(C(F)(F)F)c2)cc1-c1ccc2c([C@H](C)O)n[nH]c2n1 [Compound 55, N-{3-[3-((S)-1-Hydroxy-ethyl)-1H-pyrazolo[3,4-b]pyridin-6-yl]-4-methyl-phenyl}-3-trifluoromethyl-benzamide] | 965 | 0.01 to 25 | AUC ([1]; 3 mg/kg): 1060 ng·h/mL; AUC ([1]; 30 mg/kg): 13600 ng·h/mL
Cc1ccc(NC(=O)c2cccc(C(F)(F)F)c2)cc1-c1cc(C)c2c(N)n[nH]c2n1 [Compound A, N-(3-(3-amino-4-methyl-1H-pyrazolo[3,4-b]pyridin-6-yl)-4-methylphenyl)-3-(trifluoromethyl)benzamide] | 273 | 0.01 to 25 | –
